The source of these data is patent EP2520297A1, “Rubreserine and its derivates with antiparasitic activity” (Commissariat à l'Énergie Atomique et aux Énergies …, priority 2011, dated 2012).

Where two headings read alike, the source gives them in different places.

Series [1] concerns Toxoplasma gondii tachyzoites (RH-YFP2 strain). Briefly: Toxoplasma gondii invasion assay in human fibroblasts. The format is cell-based. Particulars: for IC50: Toxoplasma gondii, Fibroblast, calculated from the curves of Figures 3A and 3B (invasion and intracellular replication). How it is done: (§1) Toxoplasma gondii tachyzoites (RH-YFP2 strain) were propagated in human foreskin fibroblasts (HFFs). Human cells were grown in DMEM supplemented with 100 U/mL penicillin, […] streptomycin, 2 mM glutamine, and 10% FBS (Gibco). To obtain extracellular parasites, host cells were forced through a 26.5 gauge needle, and then the released parasites were purified by filtration through a 3 µm polycarbonate membrane before use.
For the invasion assay, RH-YFP2 parasites were incubated for 5 hours with the different drugs. Then 10^6 parasites/well were centrifuged for 30 seconds at 1300 rpm on HFF monolayers to synchronize invasion and wells were incubated for 15 minutes in a water bath at 37°C. Wells were washed three times with cold PBS to eliminate extracellular parasites and cells were fixed in 2.5% formaldehyde/PBS for 30 minutes and stored in PBS at 4°C until staining. To distinguish intracellular from extracellular parasites, cells were incubated with the primary antibody mAb Tg05-54 to detect the major Toxoplasma surface protein SAG1 (TgSAG1), then with Texas Red-conjugated goat anti-mouse secondary antibody (Molecular Probes). […] Nuclei were stained with Hoechst 33258 (Molecular Probes). To determine the number of intracellular parasites, 12 randomly selected fields were counted per well and per experiment with a Zeiss Axioplan 2 microscope equipped for epifluorescence and phase-contrast. Invasion was expressed as % of the number of intracellular parasites recorded in non-treated cells.

In the next series the test system is Toxoplasma gondii. Particulars: read-out: IC50 generally reported in the literature; P. Meneceur, Antimicrob. Agents Chemother. 52 (2008); cited from earlier work.
Series [2] deals with confluent human fibroblast cells. Briefly: Effect on confluent human fibroblast cells. Particulars: concentrations up to 50 µM. The format is cell-based. How it is done: Firstly, it was verified that rubreserine concentrations up to 50 µM had no effect on confluent human fibroblast cells. The effect of rubreserine on Toxoplasma gondii parasites was then studied in two situations: • i) in invasion of human fibroblasts, and • ii) in intracellular development of the parasites.

In series [3] the test system is Arabidopsis thaliana (ecotype Columbia) seedlings. Briefly: Arabidopsis thaliana seedling growth on agar plates. The format is in vivo. Here is the method: Arabidopsis thaliana (ecotype Columbia) seedlings were grown on plates containing Murashige and Skoog medium, […], plus the various molecules to be tested. Seeds were first sterilized by soaking for 15 minutes in a solution containing 0,095% Tween® 20 and 0,57% sodium hypochlorite before to be laid on the agar medium. The plates were conserved in the dark at 4°C for 48 hours, and then transferred in a green house (20°C, 80% humidity, 150 µE.m^-2.s^-1, 12 hours light period). The number of seedlings at the two leaf stage (rosette stage) was counted after 2 weeks.

Another series concerns the target T1, ADCL (Escherichia coli, UniProt P28305).
T1 construct: made in house
Briefly: Control experiment on ADCL. The conditions noted are these: control experiments. The format is biochemical.

Series [4] deals with 3D7 strain of Plasmodium falciparum. Briefly: Plasmodium falciparum SYBR Green 1-based fluorescence growth assay. The format is cell-based. Particulars: 3D7, 96 h. How it is done: The 3D7 strain of Plasmodium falciparum was maintained in O+ blood. A rubreserine 10 mM stock concentration was made up in 1 × PBS pH = 7.5. This stock solution was then diluted serially to obtain the growth curve. Growth inhibition was measured after 96 hours by using an in vitro SYBR Green 1-based fluorescence growth assay, as previously described (T. N. Bennett et al., Antimicrob. Agents Chemoter. (2004) 48 1807-1810; M. Smilkstein et al., Antimicrob. Agents Chemoter. (2004) […] 1803-1806).

Series [5] concerns Toxoplasma gondii tachyzoites (RH-YFP2 strain). Briefly: Toxoplasma gondii intracellular proliferation assay. The format is cell-based. Here is the method: as §1
For the proliferation assay, 10^5 parasites/well were centrifuged on HFF monolayers for 30 seconds at 1300 rpm and incubated for 15 minutes in a water bath at 37°C for invasion. Wells were then washed three times with PBS to eliminate extracellular parasites and drugs were added. After 24 hours at 37°C in a humidified atmosphere containing 5% CO2, cells were fixed as described above. The number of parasites from up to 200 individual vacuoles was counted for each drug concentration.

For series [6], the target named is T2, recombinant Arabidopsis thaliana GAT-ADCS (Arabidopsis thaliana, UniProt Q8LPN3).
T2 construct: made in house
Briefly: Determination of GAT-ADCS activities (glutamate or pABA production, fluorescence). The format is biochemical. Here is the method: Both proteins were expressed and purified as described in the publication of D. Camara et al., Archives of Biochemistry and Biophysics 505 (2011) 83-90.
GAT-ADCS activity can be determined by measuring the production of either glutamate or pABA. Standard assays contained 100 mM Tris/HCl (pH 8.0), 5 mM MgCl2, 5% V/V glycerol, 0 to 0.5 mM L-glutamine, 0.1 mM chorismate, 9 yg ml^-1 (90 nM) of the recombinant Arabidopsis thaliana GAT-ADCS and either 1 mM NAD and an excess of glutamate deshydrogenase (GDH) for glutamate determination, or an excess of Escherichia coli ADCL (20 µg ml^-1, 600 nM) for pABA determination. Reactions (final volume 80 µl) were run in the wells of a 96 well microplate (Greiner) and changes in fluorescence were continuously monitored with a microplate scanning spectrophotometer Safir 2 (Tecan). The glutamate production was followed by the fluorescence emission of NADH at 450 nm (excitation 340 nm). The pABA production was directly followed by the increase of the fluorescence emission at 340 nm (excitation 290 nm).
The equipment involved an automated screening station (Tecan Genesis 2000, Lyon, France), including a microplate reader. The platform is controlled by software for driving of serial devices and assays scheduling (Tecan Gemini 4.2 and FACTS 4.82 software). The library of compounds was purchased from The Prestwick Chemical Library®. This library contains 1200 molecules, 100% being marketed drugs, supplied at a 5 mM concentration in DMSO. The final concentration used in the enzymatic assay was 100 µM, and it was verified in separate control experiments that 2% DMSO had no effect on the activity. The enzymatic test used to determine GAT-ADCS activity in primary and secondary screenings was based on glutamate determination, as described above. After optimization of the assay, the Z' factor was comprised between 0.68 and 0.84.

For a further series, the target named is ADCS (Escherichia coli, UniProt P05041). The conditions noted are these: purified enzyme; M. C. Kozlowski et al., J. Am. Chem. Soc. 117 (1995); cited from earlier work.
Chain of ADCS (P05041 whole entry): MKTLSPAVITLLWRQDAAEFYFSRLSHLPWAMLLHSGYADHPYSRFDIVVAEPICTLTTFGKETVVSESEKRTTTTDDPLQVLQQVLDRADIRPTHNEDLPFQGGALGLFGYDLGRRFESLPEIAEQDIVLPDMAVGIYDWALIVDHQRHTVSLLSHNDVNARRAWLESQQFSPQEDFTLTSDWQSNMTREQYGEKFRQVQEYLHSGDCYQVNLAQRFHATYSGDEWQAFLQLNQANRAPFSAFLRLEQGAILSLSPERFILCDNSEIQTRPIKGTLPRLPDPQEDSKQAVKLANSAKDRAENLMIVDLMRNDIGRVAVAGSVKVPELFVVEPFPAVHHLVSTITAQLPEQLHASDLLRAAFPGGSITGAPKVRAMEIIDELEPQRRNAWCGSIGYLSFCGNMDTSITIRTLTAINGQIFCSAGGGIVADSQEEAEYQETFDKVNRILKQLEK

T2 sequence (Q8LPN3 46-919): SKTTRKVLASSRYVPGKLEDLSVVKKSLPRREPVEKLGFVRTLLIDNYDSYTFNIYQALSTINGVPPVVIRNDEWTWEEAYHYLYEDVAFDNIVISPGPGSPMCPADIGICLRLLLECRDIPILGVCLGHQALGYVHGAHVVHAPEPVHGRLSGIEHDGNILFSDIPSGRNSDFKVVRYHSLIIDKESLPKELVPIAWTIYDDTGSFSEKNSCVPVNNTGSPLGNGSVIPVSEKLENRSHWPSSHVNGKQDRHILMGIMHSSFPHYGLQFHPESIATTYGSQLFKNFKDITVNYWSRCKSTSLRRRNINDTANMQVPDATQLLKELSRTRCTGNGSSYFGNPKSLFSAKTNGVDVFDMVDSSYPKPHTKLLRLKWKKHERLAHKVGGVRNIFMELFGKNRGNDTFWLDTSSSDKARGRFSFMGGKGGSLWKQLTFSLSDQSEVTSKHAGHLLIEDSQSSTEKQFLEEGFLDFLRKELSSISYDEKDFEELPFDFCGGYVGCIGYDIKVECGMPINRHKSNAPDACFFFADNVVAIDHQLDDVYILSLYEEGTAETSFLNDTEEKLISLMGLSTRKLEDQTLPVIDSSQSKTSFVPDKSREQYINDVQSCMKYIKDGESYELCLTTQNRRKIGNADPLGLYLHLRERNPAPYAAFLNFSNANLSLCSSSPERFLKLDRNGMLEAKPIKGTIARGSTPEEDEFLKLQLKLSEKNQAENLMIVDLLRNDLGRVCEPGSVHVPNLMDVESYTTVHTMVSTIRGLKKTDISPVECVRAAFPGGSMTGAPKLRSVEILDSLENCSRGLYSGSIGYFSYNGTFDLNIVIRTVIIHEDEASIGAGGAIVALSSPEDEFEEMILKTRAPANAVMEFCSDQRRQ
T1 sequence (P28305 whole entry): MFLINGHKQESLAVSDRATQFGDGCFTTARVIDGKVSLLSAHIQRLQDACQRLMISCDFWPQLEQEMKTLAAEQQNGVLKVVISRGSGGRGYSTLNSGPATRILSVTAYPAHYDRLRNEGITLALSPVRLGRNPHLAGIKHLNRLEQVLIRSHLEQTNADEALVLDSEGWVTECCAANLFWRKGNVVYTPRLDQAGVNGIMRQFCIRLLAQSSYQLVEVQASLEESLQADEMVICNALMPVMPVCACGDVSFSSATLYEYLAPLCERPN

Consider `Nc1ccc(S(=O)(=O)Nc2ncccn2)cc1` [sulfadiazine, reference compound], for which the IC50 is over 50 µM in series [1] and over 30 µM in the series on Toxoplasma gondii.
For the compound `CN1CCC2(C)C3=CC(=O)C(=O)C=C3N(C)C12` (stereo not shown) [rubreserine], the “effect on confluent human fibroblast cells” value in series [2] is reported as “no effect”. Further, the “growth inhibition with 5-formyl tetrahydrofolate” value in series [3] (200 µM 5-FTHF together with rubreserine, lower extent than pABA) is given as “able to revert the inhibitory effect”. Further, the “growth inhibition with pABA” value in [3] (agar plates supplemented with 200 µM pABA together with rubreserine) was “suppressed or largely reduced”. Moreover, in series [3] (agar plates, various concentrations (50 or 100 µM), two weeks), the growth of seedlings entry is reported as “dose-dependent growth inhibition”. The “effect on ADCL” value on ADCL is listed as “no effect”. Further, the IC50 was about 1.2 µM in series [4] and about 20 µM in [1]. Besides, the “number of intracellular parasites” value in [1] (20 µM, parasites incubated 5 hours with drug, 15 minutes contact with human cells) was “reduced two times”. Besides, the “efficiency compared with sulfanilamide and sulfadiazine” value in series [1] (invasion of human fibroblasts or intracellular replication) is reported as “more efficient”. Also, in [5] (20 µM rubreserine with 100 µM pABA or 100 µM 5-FTHF), the “inhibition in the presence of pABA or 5-FTHF” value was “significantly reversed the inhibition”. Also, the “number of parasites in the parasitophorous vacuoles” value in series [5] (24 hours after invasion, 200 vacuoles counted) was “decreased”. In addition, the “inhibition in combination with pyrimethamine” value in series [5] (rubreserine 20 µM with pyrimethamine 0.4 µM, compared to rubreserine alone) is “increased”. In addition, the “period of incubation required to obtain maximal inhibition” value in series [6] (GAT activity, 10 and 20 µM) turned out to be 20 min. The Ki was under 10 µM in series [6] (bifunctional GAT-ADCS, summary statement, read-out: apparent inhibitory constant (Ki)); about 4 µM in series [6] (pABA production, varying glutamine, 100 µM chorismate, 20 minutes incubation with rubreserine, estimated from the curves, read-out: Ki); about 9 µM in series [6] (pABA production, varying glutamine, 100 µM chorismate, 20 minutes incubation with rubreserine, estimated from the curves, read-out: αKi). Also, the type of inhibition entry in series [6] (decreased Vm for pABA production, increased Km for glutamine) is “mixed-type inhibition”. Also, the “inhibitory effect after incubation with a reducing agent” value in series [6] (incubation with dithiothreitol (DTT)) was “suppressed the inhibitory effect”.
As for `CN1CCC2(C)c3cc(O)ccc3N(C)C12` (single isomer, unassigned) [eseroline, reference compound], the “effect on the enzyme activity” value in [6] is listed as “no or little effect”.
In the case of `C=C(OC1C(O)=C(C(=O)O)C=CC1N)C(=O)O` (stereo not shown) [2-hydroxy-4-amino-4-deoxy chorismate], on ADCS, the Ki was 38 µM.
